# Laboratory results from PubChem BioAssay (NCI).
#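 Each compound was tested at five concentrations against cells in 96-well plates for 48 hours. GI50: concentration for 50% inhibition of growth. Definition used: TGI = concentration required for complete inhibition of growth.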
# Key:
# Assay in all cases: inhibition of tumour cell growth, NCI panel, 48 h
# A498 renal = system: A498 renal
# COLO 205 colon = system: COLO 205 colon
# HCT-15 colon = system: HCT-15 colon
# K-562 leukemia = system: K-562 leukemia
# KM12 colon = system: KM12 colon
# NCI/ADR-RES ovarian = system: NCI/ADR-RES ovarian
# OVCAR-5 ovarian = system: OVCAR-5 ovarian
# SK-MEL-2 melanoma = system: SK-MEL-2 melanoma
# SNB-19 CNS = system: SNB-19 CNS
# BT-549 breast = system: BT-549 breast
Compound,TGI (A498 renal) [µM],TGI (COLO 205 colon) [µM],TGI (HCT-15 colon) [µM],TGI (K-562 leukemia) [µM],TGI (KM12 colon) [µM],TGI (NCI/ADR-RES ovarian) [µM],TGI (OVCAR-5 ovarian) [µM],TGI (SK-MEL-2 melanoma) [µM],TGI (SNB-19 CNS) [µM],GI50 (A498 renal) [µM],GI50 (BT-549 breast) [µM],TGI (BT-549 breast) [µM],GI50 (COLO 205 colon) [µM],GI50 (HCT-15 colon) [µM],GI50 (K-562 leukemia) [µM],GI50 (KM12 colon) [µM],GI50 (NCI/ADR-RES ovarian) [µM],GI50 (OVCAR-5 ovarian) [µM],GI50 (SK-MEL-2 melanoma) [µM],GI50 (SNB-19 CNS) [µM]
CCCS(=O)c1nc(COC(=O)NC)c(COC(=O)NC)n1C (stereo not given),> 100,> 100,> 100,> 100,> 100,> 100,> 100,> 100,> 100,,,,,,,,,,,
C[C@@H](CS[As](C)C)C(=O)N1CCC[C@H]1C(=O)O,9.67,,1.28,1.1,12.5,0.581,1.8,5.88,31.2,0.804,0.487,2.31,0.156,0.0888,0.051,1.9,0.224,0.444,0.468,3.76
CN(C)CC1C(=O)O[C@H]2[C@H]1CC/C(COC(=O)NCc1ccc(Cn3c(=O)sn(CCCI)c3=O)cc1)=C\CC[C@@]1(C)O[C@@H]21 (stereo not given in full),13.6,1.66,2.13,6.01,15.7,30.1,5.04,13.8,14.2,7.02,1.84,7.93,0.833,0.965,1.02,7.71,10.2,1.38,6.31,7.26
CCN(CC)S(=O)(=O)c1cccc(-c2ccc3c(NC(=O)C4CC4)n[nH]c3c2)c1,> 6.25,> 6.25,> 6.25,> 6.25,> 6.25,> 6.25,> 6.25,> 6.25,> 6.25,1.61,1.53,> 6.25,1.71,2.4,0.381,1.08,> 6.25,5.69,1.85,3.13
Cc1cc2c3c([n+](C)c4ccc(F)cc4c3c1)-c1cc(F)ccc1N2C,> 100,16.3,> 100,> 100,44.1,> 100,> 100,28.6,> 100,> 100,4.63,33.9,3.5,> 100,4.74,4.81,> 100,> 100,10.9,4.13
Cc1ccc(N=Nc2c(O)ccc3n[nH]nc23)cc1,42.2,73.9,92.4,> 100,37.9,73.2,> 100,59.4,> 100,1.99,21.2,> 100,22.4,12.3,9.06,10.8,10.2,43.5,19,20.7
O=C1c2ccn(CCCNC(CO)(CO)CO)c2C(=O)c2c1c(O)c1ccccc1c2O,,29.4,28.6,90.1,25.7,26.7,13.5,68.8,> 100,,43.9,> 90.2,13.2,14.2,9.36,11.1,10.7,,23.1,36.3
COc1c(-c2ccc3c(c2)OCO3)oc2cc(O)cc(O)c2c1=O,72.3,> 100,> 100,> 100,> 100,> 100,> 100,> 100,> 100,,,,,,,,,,,
O=C1CC(Cc2n[nH]c3c2CCCC3)CC(=O)N1,> 100,> 100,> 100,> 100,> 100,> 100,> 100,> 100,,,,> 100,,,,,,,,
CCn1cc(C(=O)N/N=C/c2cccs2)c(=O)c2cc(F)c(N3CCNC(C)C3)c(F)c21 (stereo not given),21.1,3.52,2.82,,3.27,3.48,2.97,3.95,2.96,3.64,12.3,36.9,1.78,1.47,,1.73,1.8,1.59,1.96,1.61
CC(C)(C)[Si](C)(C)OCCc1ccccc1C1CC2(S(=O)(=O)c3ccccc3)ON1CC2S(=O)(=O)c1ccccc1 (stereo not given),> 100,> 100,,> 100,> 100,> 100,> 100,> 100,> 100,,,> 100,,,,,,,,
Cc1cc(Cl)ccc1N=C1NC(=O)C(CC(=O)Nc2cccc(C)c2C)S1 (stereo not given),50.5,46.2,> 100,> 100,> 100,,> 100,46.9,68.3,,,,,,,,,,,
COc1cc2c3c(n([C@@H]4CCOC4)c(=O)c2cc1OC)-c1cc2c(cc1C3=O)OCO2,,> 100,,> 100,,> 100,,,> 100,,0.0218,> 100,0.0193,,0.0166,,< 0.01,,,< 0.01
C[C@]12CC(C=O)C(=O)C(O)=C1CC[C@@H]1C2CC[C@@]2(C)C1CC[C@]2(C)O (stereo not given in full),45.9,38.3,60.8,> 100,74.6,,32.6,26.6,63.5,,,,,,,,,,,
O=C(NCc1ccco1)C1CCN(S(=O)(=O)c2ccc(Cl)cc2)CC1,,> 100,> 100,> 100,> 100,> 100,> 100,> 100,> 100,,> 100,> 100,> 100,39.6,39.2,> 100,> 100,> 100,> 100,> 100
O=C1C(Cl)=C(Cl)C(=O)N1c1cccc(C(F)(F)F)c1,> 100,> 100,> 100,> 100,> 100,,> 100,> 100,> 100,,,,,,,,,,,
CCCCCCCCC(C)CCCCCCCCC(=O)OCC(COP(=O)([O-])OCC[N+](C)(C)C)OC(=O)CCCCCCCCC(C)CCCCCCCC (stereo not given),> 100,> 100,> 100,> 100,> 100,,> 100,> 100,> 100,,,,,,,,,,,
